Experimental data published in PubChem BioAssay AID2060504 (Molecular Pharmacology Branch, DTP, NCI, 2025).

Test system: 636577-100-R-J1-PDC complex spheroid viability
Assay: Anticancer human tumor 636577-100-R-J1-PDC patient-derived endometrial adenocarcinoma cell line growth inhibition [GQUAD]
Conditions: for IC50: curve of first compound; for viability, T/C: stronger effect = lower value
Source text: DNA G-quadruplex Stabilizer Agents in Combinations in Complex Spheroids
A high-throughput screen of multi-cell type tumor spheroids was designed to identify active combinations of DNA G-quadruplex stabilizer agents and targeted small molecules. Complex spheroids include a stromal component modeled by human endothelial cells (HUVEC) and fibroblasts modeled by human mesenchymal stem cells (MSCs). The concentration ranges selected for each drug and investigational agent were based upon clinically achievable concentrations if the clinical Cmax of the agent was known.
Compounds. The drugs and investigational agents: pidnarulex (CX-5461; NSC782164), APTO-253 (NSC789042), BRACO-19 (NSC847499), peposertib (NSC802822), ceralasertib (NSC780249), elimusertib (NSC800525), camonsertib (NSC841442), AZD-1390 (NSC803789), olaparib (NSC753686), talazoparib (NSC767125), ART-558 (NSC835418), sotorasib (NSC818433), MRTX-1133 (NSC836407), SN-38 (NSC673596), topotecan (NSC609699), etoposide (NSC141540), doxorubicin (NSC123127), gemcitabine (NSC613327), 5-fluorouracil (NSC19893), paclitaxel (NSC125973), vemurafenib (NSC761431), panobinostat (NSC761190), R-306465 (JNJ-16241199; NSC773264), adavosertib (NSC754352), TP-3654 (NSC805149), carboplatin (NSC241240), KSQ-4279 (NSC840948), and staurosporine (NSC755774) were obtained from the National Cancer Institute (NCI) Developmental Therapeutics Program Chemical Repository (34). The FDA-approved anticancer drug set is available from the NCI Developmental Therapeutics Program. […] The stock solutions were prepared in dimethyl sulfoxide (DMSO, Sigma-Aldrich, St. Louis, MO, cat. D2650) at 800-fold the tested concentration and stored at -70 degrees C prior to their use. All drugs and investigational agents were tested over a range starting from a high concentration at or near the clinical Cmax and decreasing in half-log increments. If the clinical Cmax for an agent had not been determined, the highest concentration tested was 10 microM.
2.3 Cell Culture. All cells were maintained in an incubator at 37 degrees C and 5% CO2 with 95% humidity. The PDC lines were cultured according to standard operating procedures established by the NCI PDMR. All PDCs were thawed and cultured in Matrigel-coated flasks prepared with a working solution of 1X Ham's F-12 nutrient mix, without supplementation (Invitrogen, cat. 11765054), 100 U/mL penicillin-streptomycin (Invitrogen, cat. 15140122), and 2.5% Matrigel (Corning Inc., cat. 354248) for the first three passages. The 857933-349-R-J2-PDC line was cultured in 6C/Colon 1B media, which includes advanced DMEM/F-12 (Thermo Fisher Scientific, cat. 12634028), 10 mM HEPES (Thermo Fisher Scientific, cat. 15630080), 1X GlutaMAX supplement (Thermo Fisher Scientific, cat. 35050061), 0.1 mg/mL primocin (InvivoGen, cat. ant-pm-2), 10% defined fetal bovine serum, heat inactivated (HyClone Laboratories Inc., cat. SH30070.03HI), 50% L-WRN conditioned media (ATCC, cat. CRL-3276), 1.25 mM N-Acetyl-L-cysteine (Sigma-Aldrich, cat. A9165), 10 mM nicotinamide (Sigma-Aldrich, cat. N0636), 1X B-27 supplement (Thermo Fisher Scientific, cat. 17504044), 1X N-2 supplement (Thermo Fisher Scientific, cat. 17502048), 10 microM Y-27632 dihydrochloride (Tocris Bioscience, cat. 1254), and 50 ng/mL human EGF recombinant protein (Thermo Fisher Scientific, cat. PHG0311). The 485176-168-R4-J1-PDC line was cultured in Panc media, which includes all 6C/Colon 1B media components plus 100 ng/mL human FGF-10 (Thermo Fisher Scientific, cat. 100-26), 500 nM SB-431542 (Selleckchem, cat. S1067), and gastrin (Tocris, cat. 3006).
[…]

[1] = second compound 0.0316 µM, first compound 0.0316 µM
[2] = second compound 0.0316 µM, first compound 0.1 µM
[3] = second compound 0.0316 µM, first compound 0.316 µM
[4] = second compound 0.0316 µM, first compound 1 µM
[5] = second compound 0.0316 µM, first compound 3.16 µM
[6] = second compound 0.0316 µM, first compound 10 µM
[7] = second compound 0.1 µM, first compound 0.0316 µM
[8] = second compound 0.1 µM, first compound 0.1 µM
[9] = second compound 0.1 µM, first compound 0.316 µM
[10] = second compound 0.1 µM, first compound 1 µM
[11] = second compound 0.1 µM, first compound 3.16 µM
[12] = second compound 0.1 µM, first compound 10 µM
[13] = second compound 0.316 µM, first compound 0.0316 µM
[14] = second compound 0.316 µM, first compound 0.1 µM
[15] = second compound 0.316 µM, first compound 0.316 µM
[16] = second compound 0.316 µM, first compound 1 µM
[17] = second compound 0.316 µM, first compound 3.16 µM
[18] = second compound 0.316 µM, first compound 10 µM
[19] = second compound 1 µM, first compound 0.0316 µM
[20] = second compound 1 µM, first compound 0.1 µM
[21] = second compound 1 µM, first compound 0.316 µM
[22] = second compound 1 µM, first compound 1 µM
[23] = second compound 1 µM, first compound 3.16 µM
[24] = second compound 1 µM, first compound 10 µM
[25] = second compound 3.16 µM, first compound 0.0316 µM
[26] = second compound 3.16 µM, first compound 0.1 µM
[27] = second compound 3.16 µM, first compound 0.316 µM
[28] = second compound 3.16 µM, first compound 1 µM
[29] = second compound 3.16 µM, first compound 3.16 µM
[30] = second compound 3.16 µM, first compound 10 µM
[31] = second compound 10 µM, first compound 0.0316 µM
[32] = second compound 10 µM, first compound 0.1 µM
[33] = second compound 10 µM, first compound 0.316 µM
[34] = second compound 10 µM, first compound 1 µM
[35] = second compound 10 µM, first compound 3.16 µM
[36] = second compound 10 µM, first compound 10 µM
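Further: viability read after seven days of drug exposure.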
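Wherever viability, T/C is given: luminescence signal used as a proxy for viable cells; 100% = DMSO vehicle control wells.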

Work on `CC(C)(O)C1CCC(Nc2ccc3ncc(-c4cccc(C(F)(F)F)c4)n3n2)CC1` (centres undefined) + Cc1[nH]c2ccc(F)cc2c1-c1nc2c3cccnc3c3ncccc3c2[nH]1 yielded an IC50 (second compound 0.0316 µM) of 1.09 µM, an IC50 (second compound 0.1 µM) of 0.981 µM and an IC50 (second compound 0.316 µM) of 1.77 µM. The IC50 (second compound 1 µM) was 1.88 µM, the IC50 (second compound 3.16 µM) was < 0.0316 µM and the IC50 (second compound 10 µM) was < 0.0316 µM. It also gave a viability, T/C [1] of 92.8%, a viability, T/C [2] of 75.9% and a viability, T/C [3] of 111%. The viability, T/C [4] was 51.3%, the viability, T/C [5] was 35.5% and the viability, T/C [6] was 32.2%. The viability, T/C [7] was 90.7%, the viability, T/C [8] was 79.1% and the viability, T/C [9] was 84.4%. For the same molecule, the viability, T/C [10] was 49%, the viability, T/C [11] was 33.1% and the viability, T/C [12] was 26.2%. It also gave a viability, T/C [13] of 60.9%, a viability, T/C [14] of 54.6% and a viability, T/C [15] of 82.9%. It also gave a viability, T/C [16] of 62.5%, a viability, T/C [17] of 34.6% and a viability, T/C [18] of 39.9%. It also gave a viability, T/C [19] of 69%, a viability, T/C [20] of 78% and a viability, T/C [21] of 69.5%. For the same molecule, the viability, T/C [22] was 69.8%, the viability, T/C [23] was 33.7% and the viability, T/C [24] was 23.5%. It also gave a viability, T/C [25] of 20.1%, a viability, T/C [26] of 28.1% and a viability, T/C [27] of 31.1%. It also gave a viability, T/C [28] of 26.1%, a viability, T/C [29] of 16.2% and a viability, T/C [30] of 13.1%. It also gave a viability, T/C [31] of 31.6%, a viability, T/C [32] of 34.1% and a viability, T/C [33] of 39%. For the same molecule, the viability, T/C [34] was 37.8%, the viability, T/C [35] was 17.1% and the viability, T/C [36] was 15.1%.

For `CCCS(=O)(=O)Nc1ccc(F)c(C(=O)c2c[nH]c3ncc(-c4ccc(Cl)cc4)cc23)c1F` + Cc1[nH]c2ccc(F)cc2c1-c1nc2c3cccnc3c3ncccc3c2[nH]1, the IC50 (second compound 0.0316 µM) was > 10 µM, the IC50 (second compound 0.1 µM) was 5.37 µM and the IC50 (second compound 0.316 µM) was 7.08 µM. For the same molecule, the IC50 (second compound 1 µM) was 7.15 µM, the IC50 (second compound 3.16 µM) was < 0.0316 µM and the IC50 (second compound 10 µM) was < 0.0316 µM. The viability, T/C [1] was 98.2%, the viability, T/C [2] was 87.4% and the viability, T/C [3] was 116%. The viability, T/C [4] was 56.9%, the viability, T/C [5] was 73.5% and the viability, T/C [6] was 43.6%. The viability, T/C [7] was 101%, the viability, T/C [8] was 69.4% and the viability, T/C [9] was 104%. The viability, T/C [10] was 58.7%, the viability, T/C [11] was 66.3% and the viability, T/C [12] was 37.3%. For the same molecule, the viability, T/C [13] was 94.2%, the viability, T/C [14] was 79.6% and the viability, T/C [15] was 81.2%. The viability, T/C [16] was 89.6%, the viability, T/C [17] was 80.4% and the viability, T/C [18] was 36.7%. The viability, T/C [19] was 87.4%, the viability, T/C [20] was 83.1% and the viability, T/C [21] was 63.9%. The viability, T/C [22] was 82.9%, the viability, T/C [23] was 69.4% and the viability, T/C [24] was 41.6%. For the same molecule, the viability, T/C [25] was 28%, the viability, T/C [26] was 25.4% and the viability, T/C [27] was 31.2%. For the same molecule, the viability, T/C [28] was 32.5%, the viability, T/C [29] was 31.9% and the viability, T/C [30] was 20.4%. It also gave a viability, T/C [31] of 40.2%, a viability, T/C [32] of 49.2% and a viability, T/C [33] of 48.7%. For the same molecule, the viability, T/C [34] was 45.1%, the viability, T/C [35] was 43.5% and the viability, T/C [36] was 28.3%.
